One data set deals with T1, hGLP-1R (Homo sapiens, UniProt P43220).
T1 construct: expressed in transfected cells; host or cells: Flp-In-293 (HEK293-derived) cells carrying GLP1R
The experiment in a line: hGLP-1R agonist cAMP stimulation assay. The format is cell-based. To be noted: Flp-In-293-GLP1R cells, 30 minutes at 37° C. Here is the method: 1. Cell Line and Reagent Preparation
• 1) Cell line: Flp-In-293-GLP1R • 2) Medium: DMEM+10% FBS+1×Penicillin-Streptomycin+200 μg/mL HB • 3) Test buffer: 1×HBSS+20 mM HEPES+0.1% BSA+500 μM IBMX 2. Agonist Test • a) Flpin-293-GLP1R cells were incubated in a 384-well assay plate (6007680-50, PB) using a complete medium with 2,000 cells per well. • b) Prepared a 4× […] working solution with assay buffer. • c) Added 5 μL of 4× Compound Working Solution to the cell plate and incubated at 37° C. for 30 minutes. • d) Diluted the Eu-cAMP tracer (1/50) with lysis buffer and added 10 μl/well to the assay plate. • e) Diluted Ulight-anti-cAMP (1/150) with lysis buffer and added 10 μl/well to the assay plate. • f) The assay plate was incubated at constant temperature for 1 hour. • g) Read the plate on Envision 2105 plate reader at […]. 3.

Data set [1] can be described thus: Single-dose oral administration pharmacokinetic study in SD rats. The data set is classed as in vivo. To be noted: Sprague-Dawley, rat, whole blood, 5 mg/kg; for AUC(0-t): read-out: AUC0-48h. The protocol: 2. Single-Dose Oral Administration Pharmacokinetic (PK) Studies in Sprague-Dawley (SD) Rats
Pharmacokinetic (PK) studies after a single-dose oral administration for compounds. Protocol: Animals: Sprague-Dawley (SD) rats; Solvent: Solutol: PEG400: Tween80: Saline=10:40:2:48 (v/v/v/v); Dose: 5 mg/kg; Dosing concentration: 0.5 mg/mL in the solvent; Dosing volume: 10 mL/kg; Blood sampling time points: pre-dose, 0.25 h, 0.5 h, 1 h, 2 h, 3 h, 4 h, 8 h, 12 h, 18, 24 h, 32 h, 40 h, 48 h. Sample Collection: At each time point, approximately 0.15 mL of blood was drawn from the jugular vein sinus, and the collected whole blood was placed in an anticoagulant tube containing EDTA-K2. After collecting blood samples, they were processed with protein precipitation and then analyzed by LC-MS/MS.

Data set [2] can be described thus: Single-dose subcutaneous injection pharmacokinetic study in SD rats. To be noted: Sprague-Dawley, rat, blood, sc, male SD rats, 30 mg/kg, vehicle 80% MCT + 20% benzyl alcohol, read-out: AUC0-696h. The format is in vivo. The protocol:
Pharmacokinetic Studies in Sprague-Dawley (SD) Rats
1. Single-Dose Subcutaneous Injection Pharmacokinetic Studies Sprague-Dawley (SD) Rats
Pharmacokinetic (PK) studies after a single-dose subcutaneous injection for compounds: 1, 13, 18, 19, 20, 21 and orforglipron. Protocol: Animals: Male Sprague-Dawley (SD) rats; Vehicle: 80% MCT (Medium-Chain Triglycerides)+20% benzyl alcohol; Dose: 30 mg/kg in the vehicle; Dosing concentration: 30 mg/mL; Dosing volume: 1 mL/kg; Administration site: Subcutaneous injection at the back of the animal. Blood sampling time points: pre-dose, 1 h, 2 h, 8 h, 24 h, 48 h, 72 h, 96 h, 120 h, 144 h, 216 h, 312 h, 480 h, 696 h. Blood samples were collected, and the blood samples were analyzed by LC-MS/MS.

Molecules are shown by their SMILES.

The record followed here is US12234236B1, “GLP-1R agonist and therapeutic method thereof” (Ascletis Pharma (China) Co., Limited, priority 2023, dated 2025).

T1 sequence (P43220 24-463): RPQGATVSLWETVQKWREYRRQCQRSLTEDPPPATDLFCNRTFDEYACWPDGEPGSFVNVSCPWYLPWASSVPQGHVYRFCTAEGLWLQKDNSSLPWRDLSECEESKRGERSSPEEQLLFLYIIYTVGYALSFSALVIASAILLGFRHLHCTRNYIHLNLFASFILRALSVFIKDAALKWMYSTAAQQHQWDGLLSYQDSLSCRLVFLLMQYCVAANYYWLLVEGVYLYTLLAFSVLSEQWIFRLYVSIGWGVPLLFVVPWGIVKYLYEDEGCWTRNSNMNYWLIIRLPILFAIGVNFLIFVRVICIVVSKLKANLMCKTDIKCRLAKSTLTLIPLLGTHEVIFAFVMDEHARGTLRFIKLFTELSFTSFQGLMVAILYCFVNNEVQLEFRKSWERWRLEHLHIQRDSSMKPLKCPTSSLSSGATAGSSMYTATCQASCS

What is called EC50 is the concentration that produces a half-maximal response. Regarding `Cc1cc(-n2nc3c(c2-n2ccn(-c4ccc5c(c4F)CCS(=O)(=O)N5)c2=O)[C@H](C)N(C(=O)c2cc4cc(C5CCOCC5)ccc4n2[C@@]2(c4noc(=O)[nH]4)C[C@@H]2C)CC3)cc(C)c1F` [Compound 36], it took 0.05 nM to reach a half-maximal effect on hGLP-1R (EC50). This counts as picomolar.

The term Cmax denotes the highest concentration seen after dosing. As to `Cc1cc(-n2nc3c(c2-n2ccn(-c4ccc5c(cnn5C5CC5)c4F)c2=O)[C@H](C)N(C(=O)c2cc4nc(C5CCOCC5)ccc4n2[C@@]2(c4noc(=O)[nH]4)C[C@@H]2C)CC3)cc(C)c1F` [Compound 65], in data set [1], the Cmax worked out at 11000 ng/mL and the AUC(0-t) was found to be 71800 ng·h/mL. This compound yielded an EC50 at hGLP-1R of 0.092 nM.

`Cc1cc(-n2nc3c(c2-n2ccn(-c4ccc(CP(C)(C)=O)cc4)c2=O)[C@H](C)N(C(=O)c2cc4cc(C5CCOCC5)ccc4n2[C@@]2(c4noc(=O)[nH]4)C[C@@H]2C)CC3)cc(C)c1F` [Compound 50] yielded an EC50 on hGLP-1R of 0.028 nM.

In the case of `Cc1cc(-n2nc3c(c2-n2ccn(-c4ccc5c(cnn5C5CC5)c4F)c2=O)[C@H](C)N(C(=O)c2cc4nc(C5CCOCC5)ccc4n2[C@@]2(c4noc(=O)[nH]4)C[C@@H]2C)CC3)cc(C)c1F` (single isomer, unassigned) [Compound 19], in data set [1], the concentration peaked (Cmax) at 4460 ng/mL and the AUC(0-t) amounted to 60000 ng·h/mL. The AUC(0-t) in data set [2] amounted to 234000 ng·h/mL. In addition, a half-maximal response at hGLP-1R (EC50) required 0.012 nM.

In the case of `Cc1cc(-n2nc3c(c2-n2ccn(-c4ccc5c(c4)oc(=O)n5C)c2=O)[C@H](C)N(C(=O)c2cc4cc(C5CCOCC5)ccc4n2[C@@]2(c4noc(=O)[nH]4)C[C@@H]2C)CC3)cc(C)c1F` [Compound 77], the EC50 on hGLP-1R stood at 0.022 nM.

Turning to `Cc1cc(-n2nc3c(c2-n2ccn(-c4ccc5c(c4F)COB5O)c2=O)[C@H](C)N(C(=O)c2cc4cc(C5CCOC(C)(C)C5)ccc4n2[C@@]2(c4noc(=O)[nH]4)C[C@@H]2C)CC3)cc(C)c1F` (stereo partly drawn) [Compound 29], the EC50 on hGLP-1R was found to be 0.063 nM.

With `Cc1cc(-n2nc3c(c2-n2ccn(-c4ccc(CP(=O)(C5CC5)C5CC5)cc4)c2=O)[C@H](C)N(C(=O)c2cc4cc(C5CCOCC5)ccc4n2[C@@]2(c4noc(=O)[nH]4)C[C@@H]2C)CC3)cc(C)c1F` [Compound 81], the response at hGLP-1R was half-maximal at 0.042 nM (EC50).

Turning to `Cc1cc(-n2nc3c(c2-n2ccn(-c4ccc5c(c4)NCCS5(=O)=O)c2=O)[C@H](C)N(C(=O)c2cc4cc(C5CCOCC5)ccc4n2[C@@]2(c4noc(=O)[nH]4)C[C@@H]2C)CC3)cc(C)c1F` [Compound 55], the concentration for a half-maximal effect (EC50) at hGLP-1R turned out to be 0.15 nM.

`CCP(=O)(CC)Cc1ccc(-n2ccn(-c3c4c(nn3-c3cc(C)c(F)c(C)c3)CCN(C(=O)c3cc5cc(C6CCOCC6)ccc5n3[C@@]3(c5noc(=O)[nH]5)C[C@@H]3C)[C@H]4C)c2=O)cc1` [Compound 80] showed an EC50 on hGLP-1R of 0.038 nM.

As to `Cc1cc(-n2nc3c(c2-n2ccn(-c4ccc5c(cnn5C)c4F)c2=O)[C@H](C)N(C(=O)c2cc4cc([C@H]5CCOC(C)(C)C5)ccc4n2[C@@]2(c4noc(=O)[nH]4)C[C@@H]2C)CC3)cc(C)c1F` [Orforglipron, orforglipron, reference compound], in data set [1], the concentration peaked (Cmax) at 799 ng/mL and the AUC(0-t) is 7220 ng·h/mL. In data set [2], the AUC(0-t) amounted to 5390 ng·h/mL.

As to `Cc1cc(-n2nc3c(c2-n2ccn(-c4ccc5c(c4)CCC(=O)N5C)c2=O)[C@H](C)N(C(=O)c2cc4cc(C5CCOCC5)ccc4n2[C@@]2(c4noc(=O)[nH]4)C[C@@H]2C)CC3)cc(C)c1F` [Compound 78], a half-maximal effect on hGLP-1R (EC50) was put at 0.012 nM. This lies in the picomolar range.

Regarding `Cc1cc(-n2nc3c(c2-n2ccn(-c4ccc5c(c4)CS(=O)(=O)N5C)c2=O)[C@H](C)N(C(=O)c2cc4cc(C5CCOCC5)ccc4n2[C@@]2(c4noc(=O)[nH]4)C[C@@H]2C)CC3)cc(C)c1F` [Compound 76], the EC50 on hGLP-1R amounted to 0.019 nM.

For `Cc1cc(-n2nc3c(c2-n2ccn(-c4ccc5c(c4F)CS(=O)(=O)N5)c2=O)[C@H](C)N(C(=O)c2cc4cc(C5CCOCC5)ccc4n2[C@@]2(c4noc(=O)[nH]4)C[C@@H]2C)CC3)cc(C)c1F` [Compound 37], on hGLP-1R, a half-maximal effect (EC50) was put at 0.06 nM.

As for `Cc1cc(-n2nc3c(c2-n2ccn(-c4ccc5c(c4F)CCS(=O)(=O)N5C)c2=O)[C@H](C)N(C(=O)c2cc4cc(C5CCOCC5)ccc4n2[C@@]2(c4noc(=O)[nH]4)C[C@@H]2C)CC3)cc(C)c1F` [Compound 35], the EC50 at hGLP-1R was 0.025 nM. Against the preceding compound, the EC50 is about 2.4-fold lower.

Compound `Cc1cc(-n2nc3c(c2-n2ccn(-c4ccc5c(cnn5C5CC5)c4F)c2=O)[C@H](C)N(C(=O)c2cc4cc(C5CCOCC5)ncc4n2[C@@]2(c4noc(=O)[nH]4)C[C@@H]2C)CC3)cc(C)c1F` [Compound 66] had an EC50 on hGLP-1R of 0.014 nM.

Turning to `Cc1cc(-n2nc3c(c2-n2ccn(-c4ccc5c(cnn5C5CCC5)c4F)c2=O)[C@H](C)N(C(=O)c2cc4cc(C5CCOCC5)ccc4n2[C@@]2(c4noc(=O)[nH]4)C[C@@H]2C)CC3)cc(C)c1F` [Compound 20], in data set [1], the Cmax was 1900 ng/mL and the AUC(0-t) turned out to be 17000 ng·h/mL. The AUC(0-t) in data set [2] stood at 77700 ng·h/mL. At hGLP-1R, this compound returned an EC50 of 0.018 nM.

With `Cc1cc(-n2nc3c(c2-n2ccn(-c4ccc5c(cnn5C5CC5)c4F)c2=O)[C@H](C)N(C(=O)c2cc4cc(C5CCOCC5)cnc4n2[C@@]2(c4noc(=O)[nH]4)C[C@@H]2C)CC3)cc(C)c1F` [Compound 70], the EC50 at hGLP-1R turned out to be 0.064 nM.

`Cc1cc(-n2nc3c(c2-n2ccn(-c4ccc5c(c4F)COB5O)c2=O)[C@H](C)N(C(=O)c2cc4cc(C5CCOCC5)ccc4n2[C@@]2(c4noc(=O)[nH]4)C[C@@H]2C)CC3)cc(C)c1F` [Compound 79] registered an EC50 on hGLP-1R of 0.171 nM.

Regarding `Cc1cc(-n2nc3c(c2-n2ccn(-c4ccc5c(cnn5CC5CC5)c4F)c2=O)[C@H](C)N(C(=O)c2cc4cc(C5CCOCC5)ccc4n2[C@@]2(c4noc(=O)[nH]4)C[C@@H]2C)CC3)cc(C)c1F` [Compound 21], in data set [2], the AUC(0-t) came to 61500 ng·h/mL. Besides, at hGLP-1R, a half-maximal effect (EC50) was put at 0.044 nM.

For `Cc1cc(-n2nc3c(c2-n2ccn(-c4ccc(CP5(=O)CCCC5)cc4)c2=O)[C@H](C)N(C(=O)c2cc4cc(C5CCOCC5)ccc4n2[C@@]2(c4noc(=O)[nH]4)C[C@@H]2C)CC3)cc(C)c1F` [Compound 82], the midpoint of the response at hGLP-1R, the EC50, lay at 0.011 nM.

For `Cc1cc(-n2nc3c(c2-n2ccn(-c4ccc5c(cnn5C5CC5)c4F)c2=O)[C@H](C)N(C(=O)c2cc4cc([C@H]5CCOC(C)(C)C5)ccc4n2[C@@]2(c4noc(=O)[nH]4)C[C@@H]2C)CC3)cc(C)c1F` [Compound 1], the AUC(0-t) in data set [2] worked out at 60300 ng·h/mL. At hGLP-1R, this compound showed an EC50 of 0.094 nM.

With `CCOP(=O)(Cc1ccc(-n2ccn(-c3c4c(nn3-c3cc(C)c(F)c(C)c3)CCN(C(=O)c3cc5cc(C6CCOCC6)ccc5n3[C@@]3(c5noc(=O)[nH]5)C[C@@H]3C)[C@H]4C)c2=O)cc1)OCC` [Compound 84], at hGLP-1R, the response was half-maximal at 0.08 nM (EC50).

Turning to `Cc1cc(-n2nc3c(c2-n2ccn(-c4ccc(NS(C)(=O)=O)cc4)c2=O)C2CCC(C3)N2C(=O)c2cc3nc(C4CCOCC4)ccc3n2[C@@]2(c3noc(=O)[nH]3)C[C@@H]2C)cc(C)c1F` (stereo partly drawn) [Compound 24], the EC50 on hGLP-1R is 0.868 nM.

Consider `Cc1cc(-n2nc3c(c2-n2ccn(-c4ccc5c(cnn5CC5CC5)c4F)c2=O)[C@H](C)N(C(=O)c2cc4cc([C@@H]5CCOC(C)(C)C5)ccc4n2[C@@]2(c4noc(=O)[nH]4)C[C@@H]2C)CC3)cc(C)c1F` [Compound 18], for which the AUC(0-t) in data set [2] turned out to be 51200 ng·h/mL. The EC50 on hGLP-1R came out at 0.265 nM.

As for `Cc1cc(-n2nc3c(c2-n2ccn(-c4ccc5c(cnn5CC5CC5)c4F)c2=O)[C@H](C)N(C(=O)c2cc4cc(C5CCOC(C)(C)C5)ccc4n2[C@@]2(c4noc(=O)[nH]4)C[C@@H]2C)CC3)cc(C)c1F` (stereo partly drawn) [Compound 13], the AUC(0-t) in data set [2] is 23400 ng·h/mL. On hGLP-1R, this compound registered an EC50 of 0.228 nM.
